Data set [1] concerns GLP-1 (Glucagon-Like Peptide) release. The experiment in a line: GLP-1 (glucagon-like peptide) release test in mice. Format: in vivo. To be noted: C57BL/6J mice; for Average GLP-1 concentration: given into the colon by catheter, portal vein blood after 15 minutes, ELISA, NCG21 suspension in PEG at 100 mmol/g body weight; for increase of GLP-1 concentration in the portal blood relative to control DMSO: portal blood 15 minutes after colonic administration. On the procedure:
C57BL/6J mice (8 weeks old) were anesthetized with Nembutal (pentobarbital sodium) (60 mg/kg body weight), a catheter was inserted into the colon through the celiotomy, and the solution of the test compound was administered through the catheter (NCG21 as a suspension in PEG at 100 mmol/g body weight, at a rate of 100 μl/min). After 15 minutes, a blood sample was taken from the portal vein, centrifuged at 8000 rpm for 10 minutes, and the supernatant was stored at −80° C. GLP-1 (ng/mL) was determined using ELISA kit (Wako Pure Chemical Industries, Ltd.) within the next day. Each group consists of 12 mice, except that 11 mice were used for NCG21.
Background: In an ELISA, binding on a coated surface is turned into a signal by an enzyme label.

Data set [2] addresses T1, human GPR120 (hGPR120) (Homo sapiens, UniProt Q5NUL3).
T1 construct: expressed in transfected cells; doxycycline-inducible expression vector
T1 sequence (Q5NUL3 1-361): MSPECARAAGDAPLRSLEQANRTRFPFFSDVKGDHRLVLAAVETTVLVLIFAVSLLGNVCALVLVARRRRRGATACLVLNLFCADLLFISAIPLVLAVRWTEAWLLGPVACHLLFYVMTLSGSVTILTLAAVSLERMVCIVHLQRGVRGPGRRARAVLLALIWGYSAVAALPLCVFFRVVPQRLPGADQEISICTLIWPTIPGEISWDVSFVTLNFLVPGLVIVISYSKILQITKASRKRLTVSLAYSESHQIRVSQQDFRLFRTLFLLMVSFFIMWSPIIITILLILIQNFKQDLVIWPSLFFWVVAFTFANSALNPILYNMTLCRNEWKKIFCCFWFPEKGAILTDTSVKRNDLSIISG
The experiment in a line: Determination of intracellular Ca2+ concentration (FLIPR), cell line GPR120/Flp-in. The data set is classed as cell-based. Particulars: for [Ca^2+]/GPR120/Flp-In 10 μM (ratio vs. LA): relative fluorescence intensity vs LA at 10 μM.

In data set [3] the target is T1, human GPR120 (hGPR120). The experiment in a line: Determination of intracellular Ca2+ concentration (FLIPR), cell line TXGPR120. Format: cell-based. To be noted: for agonistic activity for hGPR120 (in words): cells in which GPR120 has been transgenically expressed; for [Ca^2+]/GPR120 10 μM (ratio vs. LA): relative fluorescence intensity vs LA at 10 μM.
In data set [4] the target is T2, human GPR40 (hGPR40) (Homo sapiens, UniProt O14842).
T2 construct: expressed in transfected cells; doxycycline-inducible expression vector
In words: Determination of intracellular Ca2+ concentration (FLIPR), cell line TXGPR40. Format: cell-based. To be noted: for agonistic activity for GPR40 (in words): cells in which GPR40 has been transgenically expressed; for [Ca^2+]/GPR40 10 μM (ratio vs. LA): relative fluorescence intensity vs LA at 10 μM.

For data set [5], the target named is T1, human GPR120 (hGPR120). In words: ERK assay, screening for GPR120 ligands in cell line TXGPR120.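 As to ERK/GPR120 10 μM: signals normalized between DMSO and PMA controls.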 Format: cell-based. To be noted: TXGPR120 cells, class relative to LA; for ERK/GPR120 10 μM: ligand 10 μM; for ERK/GPR120 100 μM: ligand 100 μM.
In data set [6] the target is T2, human GPR40 (hGPR40). In words: ERK assay, screening for GPR40 ligands in cell line TXGPR40. To be noted: TXGPR40 cells, class relative to LA; for ERK/GPR40 10 μM: ligand 10 μM; for ERK/GPR40 100 μM: ligand 100 μM. The data set is classed as cell-based.
[7] abbreviates: GPR120/Flp-in cells, maximum fluorescence intensity vs ligand concentration, read-out: [Ca^2+]/GPR120/Flp-In pEC50 (converted).
Setting [8] is: TXGPR40 cells, maximum fluorescence intensity vs ligand concentration, read-out: [Ca^2+]/GPR40 pEC50 (converted).

The values below come from US8318781B2, “G-protein-conjugated receptor agonist” (Japan Science and Technology Agency, priority 2007, dated 2012).

Where two headings read alike, the source gives them in different places.

T2 sequence (O14842 whole entry): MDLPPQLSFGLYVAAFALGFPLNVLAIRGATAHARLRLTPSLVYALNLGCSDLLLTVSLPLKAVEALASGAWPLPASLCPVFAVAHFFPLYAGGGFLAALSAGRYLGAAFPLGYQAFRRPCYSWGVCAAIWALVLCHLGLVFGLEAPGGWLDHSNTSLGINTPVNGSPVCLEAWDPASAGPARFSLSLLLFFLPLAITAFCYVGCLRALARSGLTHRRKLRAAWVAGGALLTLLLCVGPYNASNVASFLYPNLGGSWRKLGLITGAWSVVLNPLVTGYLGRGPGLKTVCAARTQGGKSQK

On to `CC/C=C\C/C=C\C/C=C\CCCCCCCC(=O)O` [LA, cis-α-linolenic acid, reference compound], for which, in data set [1], the “Average GLP-1 concentration” value is 3.87 ng/mL and the “increase of GLP-1 concentration in the portal blood relative to control DMSO” value is 2.4 times.

For orientation: melting point means the temperature, or range, at which the solid turns liquid. In turn, `O=C(O)CCCc1ccc(OCCN(c2ccccc2)c2ccccn2)cc1` [NCG21] registered a melting point of 98 to 99 °C. Further, the EC50 in data set [2] (setting [7]) is 1.26 µM. For the same compound, in data set [3] (TXGPR120 cells, maximum fluorescence intensity vs ligand concentration, read-out: [Ca^2+]/GPR120 pEC50 (converted)), the EC50 is 2.88 µM. For the same compound, in data set [4] (setting [8]), the EC50 is 18.6 µM. In addition, in data set [1], the “Average GLP-1 concentration” value came to 4.02 ng/mL and the “increase of GLP-1 concentration in the portal blood relative to control DMSO” value is reported as 2.5 times.

For the compound `O=C(O)CCCCc1ccc(OCCN(c2ccccc2)c2ccccn2)cc1` [NCG23, 5-{4-[2-(2-phenylpyridinylamino)ethoxy]phenyl}pentanoic acid], the melting point lay within 74 to 75 °C. This compound also had an EC50 in data set [2] of 9.12 µM. In data set [4], this compound showed an EC50 of 7.76 µM.

On to `CCCN(CCOc1ccc(CCC(=O)O)cc1)c1ccccn1` [NCP03], for which the EC50 in data set [2] (setting [7]) was 17.8 µM. Further, the “[Ca^2+]/GPR120/Flp-In 10 μM (ratio vs. LA)” value in data set [2] (GPR120/Flp-in cells) is 0.57. In addition, in data set [3], the “agonistic activity for hGPR120 (in words)” value is listed as “exhibit a similar effect”. In addition, the “[Ca^2+]/GPR120 10 μM (ratio vs. LA)” value in data set [3] (TXGPR120 cells) is reported as 0.00. In addition, in data set [5], the “ERK/GPR120 10 μM” value is reported as “+ (+ denotes 0 to 100% of LA)” and the “ERK/GPR120 100 μM” value was “++ (++ denotes 50 to 100% of LA)”. Besides, the EC50 in data set [4] (setting [8]) is 5.25 µM. In addition, in data set [4], the “agonistic activity for GPR40 (in words)” value is given as “showed a specific reactivity”. Further, the “[Ca^2+]/GPR40 10 μM (ratio vs. LA)” value in data set [4] (TXGPR40 cells) stood at 1.25. In data set [6], the “ERK/GPR40 10 μM” value is “++ (++ denotes 50 to 100% of LA)” and the “ERK/GPR40 100 μM” value was “+++ (+++ denotes a higher value than LA)”.

For `CCCCN(CCOc1ccc(CCC(=O)O)cc1)c1ccccn1` [NCP04], in data set [2] (setting [7]), the EC50 is 18.2 µM. For the same compound, the “[Ca^2+]/GPR120/Flp-In 10 μM (ratio vs. LA)” value in data set [2] (GPR120/Flp-in cells) amounted to 0.33. For the same compound, the “agonistic activity for hGPR120 (in words)” value in data set [3] is listed as “exhibit a similar effect”. For the same compound, in data set [3] (TXGPR120 cells), the “[Ca^2+]/GPR120 10 μM (ratio vs. LA)” value stood at 0.00. Moreover, in data set [5], the “ERK/GPR120 10 μM” value was “+ (+ denotes 0 to 100% of LA)” and the “ERK/GPR120 100 μM” value was “+++ (+++ denotes a higher value than LA)”. Moreover, the EC50 in data set [4] (setting [8]) is 2.57 µM. Besides, the “agonistic activity for GPR40 (in words)” value in data set [4] was “showed a specific reactivity”. Besides, the “[Ca^2+]/GPR40 10 μM (ratio vs. LA)” value in data set [4] (TXGPR40 cells) was 2.15. In addition, in data set [6], the “ERK/GPR40 10 μM” value is “+++ (+++ denotes a higher value than LA)” and the “ERK/GPR40 100 μM” value is listed as “+++ (+++ denotes a higher value than LA)”.

For `CCCCCN(CCOc1ccc(CCC(=O)O)cc1)c1ccccn1` [NCP05], the EC50 in data set [2] (setting [7]) was 11.5 µM. Also, the “[Ca^2+]/GPR120/Flp-In 10 μM (ratio vs. LA)” value in data set [2] (GPR120/Flp-in cells) came to 0.45. In addition, the “agonistic activity for hGPR120 (in words)” value in data set [3] is reported as “exhibit a similar effect”. Further, in data set [3] (TXGPR120 cells), the “[Ca^2+]/GPR120 10 μM (ratio vs. LA)” value is listed as 0.00. For the same compound, in data set [5], the “ERK/GPR120 10 μM” value is recorded as “+ (+ denotes 0 to 100% of LA)” and the “ERK/GPR120 100 μM” value is “+++ (+++ denotes a higher value than LA)”. Also, the EC50 in data set [4] (setting [8]) is 5.62 µM. Also, the “agonistic activity for GPR40 (in words)” value in data set [4] is listed as “showed a specific reactivity”. Besides, in data set [4] (TXGPR40 cells), the “[Ca^2+]/GPR40 10 μM (ratio vs. LA)” value was found to be 1.22. Further, in data set [6], the “ERK/GPR40 10 μM” value is recorded as “+++ (+++ denotes a higher value than LA)” and the “ERK/GPR40 100 μM” value is listed as “+++ (+++ denotes a higher value than LA)”.

With `O=C(O)CCc1ccc(OCCN(c2ccccc2)c2ccccn2)cc1` [NCP14], the EC50 in data set [2] (setting [7]) is 15.5 µM. Besides, the “[Ca^2+]/GPR120/Flp-In 10 μM (ratio vs. LA)” value in data set [2] (GPR120/Flp-in cells) was determined as 0.56. Also, the “agonistic activity for hGPR120 (in words)” value in data set [3] is “exhibit a similar effect”. Further, the “[Ca^2+]/GPR120 10 μM (ratio vs. LA)” value in data set [3] (TXGPR120 cells) came out at 0.00. In addition, in data set [5], the “ERK/GPR120 100 μM” value is listed as “++ (++ denotes 50 to 100% of LA)”. The EC50 in data set [4] (setting [8]) is 9.77 µM. Besides, the “agonistic activity for GPR40 (in words)” value in data set [4] is recorded as “showed a specific reactivity”. Also, the “[Ca^2+]/GPR40 10 μM (ratio vs. LA)” value in data set [4] (TXGPR40 cells) came to 0.98. Besides, in data set [6], the “ERK/GPR40 10 μM” value is listed as “++ (++ denotes 50 to 100% of LA)” and the “ERK/GPR40 100 μM” value was “++ (++ denotes 50 to 100% of LA)”.
